Values after ≈ are worked out from the molar mass of the structure shown.
How the values were obtained:
[1] = Microbroth dilution assay (MIC), antibacterial activity; type: cell-based; details: range over all test strains (S. aureus, S. pneumoniae, E. faecalis, E. faecium, B. subtilis, E. coli and resistant strains); 35° C., read to no growth after 22-24 hours; NCCLS guidelines; read-out: minimum inhibitory concentration (MIC)
Procedure: (§1) The protocols used to determine the antibacterial activity of Compound I are described below.
(§2) • Cation-Adjusted Mueller Hinton Broth (MH; BBL) • 50% Lysed Horse Blood (LHB; BBL) (stored frozen) • RPMI 1640 (BioWhittaker) • Human Serum (Pel-Freez) • RPMI 1640 (BioWhittaker) • Haemophilus Test Medium (HTM, Remel) • Trypticase Soy Broth (TSB, 5 mL/tube; BBL) • 0.9% Sodium Chloride (Saline; Baxter) • Trypticase Soy+5% Sheep Blood Agar Plates (TSA; BBL) • Sabouraud Dextrose Agar Plates (BBL) • Chocolate Agar Plates (BBL) • 2× Skim Milk (Remel) • Microbank Beads (Kramer Scientific) • MIC 2000 Microtiter plate inoculator. • 2× Trypticase Soy Broth (TSB, BBL)+15% glycerol/50% horse serum. • 96-Well Microtiter plates, lids, inoculum trays (Dynex Laboratories) • 8-Channel Finn Multichannel pipettor, 0.5-10 μL volume Methods: Media Preparation
(§3) Cation-Adjusted Mueller Hinton Broth (BBL): Prepared according to manufacturer's instructions (22 gms dissolved in 1000 mL water; autoclaved 22 minutes). Stored refrigerated. Filter-sterilized before use using a Corning 0.45 Tm cellulose acetate filter.
(§4) Cation-Adjusted Mueller Hinton+2.5% Lysed Horse Blood: Aseptically add 5 mL 50% lysed horse blood to 100 mL Cation-Adjusted Mueller Hinton Broth. Filter-sterilize before use using a Corning 0.45 Tm cellulose acetate filter. […]

[2] = system: various strains of S. aureus, S. pneumoniae, E. faecalis, E. faecium, B. subtilis and E. coli, including MRSA, VRE, multidrug-resistant E. faecium …; assay: as above; type: cell-based; details: various strains of S. aureus, S. pneumoniae, E. faecalis, E. faecium, B. subtilis and E. coli, including MRSA, VRE, multidrug-, macrolide- and linezolid-resistant species
Procedure: as §1, §2, §3, §4

- MIC [1]: 0.5 to 32 µg/mL (≈ 1.18 to 75.2 µM)
Compound: C=C1C[C@@]23C=CC(=O)[C@@](C)(CCC(=O)Nc4c(O)ccc(C(=O)O)c4O)C2C[C@@H]1CC3 (stereo in doubt) [Compound I]
- antibacterial activity [2]: demonstrates antibacterial activity

Reference: patent US7807445B2, “Antibiotic compound” (Merck Sharp and Dohme de Espana, S.A., priority 2004, dated 2010)
